Experimental data published in BigSolDB 2.1.

CO/N=C(\C(=O)N[C@@H]1C(=O)N2C(C(=O)O)=C(CSC(=O)c3ccco3)CS[C@H]12)c1csc(N)n1.Cl
Conditions	solubility (mole fraction)
in acetone, 283.36 K	1e-05
in acetone, 288.2 K	1.6e-05
in acetone, 293.15 K	2.7e-05
in acetone, 298.05 K	4.3e-05
in acetone, 302.87 K	7e-05
in acetone, 307.65 K	0.00011
in acetone, 313.45 K	0.000193
in acetone, 318.4 K	0.000313
in acetone, 322.35 K	0.000478
in ethanol, 283.35 K	0.00178
in ethanol, 288.15 K	0.00192
in ethanol, 293.15 K	0.00209
in ethanol, 298.15 K	0.00233
in ethanol, 303.1 K	0.00262
in ethanol, 307.95 K	0.00292
in ethanol, 313.55 K	0.00335
in ethanol, 318.75 K	0.00384
in ethanol, 322.65 K	0.00421
in isopropanol, 283.2 K	0.000235
in isopropanol, 288.2 K	0.000255
in isopropanol, 293.15 K	0.000311
in isopropanol, 298.15 K	0.000402
in isopropanol, 303.05 K	0.000535
in isopropanol, 308 K	0.000649
in isopropanol, 312.8 K	0.000793
in isopropanol, 318.45 K	0.001
in isopropanol, 324.35 K	0.00134
in methanol, 283.25 K	0.00952
in methanol, 288.25 K	0.00992
in methanol, 293.15 K	0.0105
in methanol, 297.85 K	0.0112
in methanol, 300.55 K	0.0116
in methanol, 307.35 K	0.0127
in methanol, 313.3 K	0.0137
in methanol, 317.95 K	0.0148
in methanol, 320.65 K	0.0155
in n-propanol, 283.55 K	0.000534
in n-propanol, 288.55 K	0.000573
in n-propanol, 293.35 K	0.000646
in n-propanol, 298.35 K	0.000717
in n-propanol, 303.35 K	0.000802
in n-propanol, 308.05 K	0.000922
in n-propanol, 312.95 K	0.00103
in n-propanol, 317.95 K	0.00117
in n-propanol, 322.75 K	0.00135
